Results taken from the supplement of paper PMC4932681.

Columns and labels:
[1] = test system: MCF-7 Tam1; assay: drug sensitivity score (DSS) (DSS (dimensionless)); higher = more sensitive; extreme values may be limits of the assay; conditions: 4-OH-tamoxifen in medium 1 µM; 72 h
Method in brief: (§1)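 After seeding into 384-well plates with library drugs at five concentrations spanning a 10 000-fold range, breast cancer cell lines and their resistant derivatives were incubated 72 h at 37 °C. Resistant lines received medium with 1 μM of the selecting drug. CellTiter-Glo signal was read on a PHERAstar and scaled to vehicle-only and positive controls. Drug sensitivity score, relative IC50 (the curve midpoint) and top-dose inhibition came from logistic fits run in the Breeze pipeline.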

[2] = test system: ZR-75-1; assay: as above; conditions: 72 h
Method in brief: as §1

[3] = test system: BT-474; assay: as above; conditions: 72 h
Method in brief: as §1

[4] = test system: T-47D Tam2; assay: as above; conditions: 4-OH-tamoxifen in medium 1 µM; 72 h
Method in brief: as §1

[5] = test system: BT-474 Tam2; assay: as above; conditions: 4-OH-tamoxifen in medium 1 µM; 72 h
Method in brief: as §1

[6] = test system: T-47D Tam1; assay: as above; conditions: 4-OH-tamoxifen in medium 1 µM; 72 h
Method in brief: as §1

[7] = test system: T-47D; assay: as above; conditions: 72 h
Method in brief: as §1

[8] = test system: ZR-75-1 Tam1; assay: as above; conditions: 4-OH-tamoxifen in medium 1 µM; 72 h
Method in brief: as §1

[9] = test system: ZR-75-1 Tam2; assay: as above; conditions: 4-OH-tamoxifen in medium 1 µM; 72 h
Method in brief: as §1

[10] = test system: MCF-7; assay: as above; conditions: 72 h
Method in brief: as §1

[11] = test system: BT-474 Tam1; assay: as above; conditions: 4-OH-tamoxifen in medium 1 µM; 72 h
Method in brief: as §1

[12] = test system: MCF-7 Tam1; assay: relative IC50 (midpoint of fitted logistic curve, plateau may be below 50% inhibition; CellTiter-Glo viability); higher = less potent; conditions: 4-OH-tamoxifen in medium 1 µM; 72 h
Method in brief: as §1

[13] = test system: ZR-75-1; assay: as above; conditions: 72 h
Method in brief: as §1

[14] = test system: BT-474; assay: as above; conditions: 72 h
Method in brief: as §1

[15] = test system: T-47D Tam2; assay: as above; conditions: 4-OH-tamoxifen in medium 1 µM; 72 h
Method in brief: as §1

[16] = test system: BT-474 Tam2; assay: as above; conditions: 4-OH-tamoxifen in medium 1 µM; 72 h
Method in brief: as §1

[17] = test system: T-47D Tam1; assay: as above; conditions: 4-OH-tamoxifen in medium 1 µM; 72 h
Method in brief: as §1

[18] = test system: T-47D; assay: as above; conditions: 72 h
Method in brief: as §1

[19] = test system: ZR-75-1 Tam1; assay: as above; conditions: 4-OH-tamoxifen in medium 1 µM; 72 h
Method in brief: as §1

[20] = test system: ZR-75-1 Tam2; assay: as above; conditions: 4-OH-tamoxifen in medium 1 µM; 72 h
Method in brief: as §1

[21] = test system: MCF-7; assay: as above; conditions: 72 h
Method in brief: as §1

[22] = test system: BT-474 Tam1; assay: as above; conditions: 4-OH-tamoxifen in medium 1 µM; 72 h
Method in brief: as §1

Row | Structure (SMILES) | drug sensitivity score [1] | drug sensitivity score ([2]; 4-OH-tamoxifen in medium 0 µM) | drug sensitivity score ([2]; 4-OH-tamoxifen in medium 1 µM) | drug sensitivity score ([3]; 4-OH-tamoxifen in medium 0 µM) | drug sensitivity score ([3]; 4-OH-tamoxifen in medium 1 µM) | drug sensitivity score [4] | drug sensitivity score [5] | drug sensitivity score [6] | drug sensitivity score ([7]; 4-OH-tamoxifen in medium 0 µM) | drug sensitivity score ([7]; 4-OH-tamoxifen in medium 1 µM) | drug sensitivity score [8] | drug sensitivity score [9] | drug sensitivity score ([10]; 4-OH-tamoxifen in medium 0 µM) | drug sensitivity score ([10]; 4-OH-tamoxifen in medium 1 µM) | drug sensitivity score [11] | relative IC50 [12] [µM] | relative IC50 ([13]; 4-OH-tamoxifen in medium 0 µM) [µM] | relative IC50 ([13]; 4-OH-tamoxifen in medium 1 µM) [µM] | relative IC50 ([14]; 4-OH-tamoxifen in medium 0 µM) [µM] | relative IC50 ([14]; 4-OH-tamoxifen in medium 1 µM) [µM] | relative IC50 [15] [µM] | relative IC50 [16] [µM] | relative IC50 [17] [µM] | relative IC50 ([18]; 4-OH-tamoxifen in medium 0 µM) [µM] | relative IC50 ([18]; 4-OH-tamoxifen in medium 1 µM) [µM] | relative IC50 [19] [µM] | relative IC50 [20] [µM] | relative IC50 ([21]; 4-OH-tamoxifen in medium 1 µM) [µM] | relative IC50 [22] [µM] | relative IC50 ([21]; 4-OH-tamoxifen in medium 0 µM) [µM]
1 | CCNC(=O)CCC/C=C\C[C@@H]1[C@@H](/C=C/[C@@H](O)CCc2ccccc2)[C@H](O)C[C@@H]1O [Bimatoprost] | 0 | 0 | 0 | 0 | 0 | 0 | 0 | 0 | 0 | 0.0302 | 0 | 0 | 0 | 0 | 0 | > 5.5 | > 5.5 | > 5.5 | > 5.5 | > 5.5 | > 5.5 | > 5.5 | > 5.5 | > 5.5 | > 5.5 | > 5.5 | > 5.5 | > 5.5 | > 5.5 | 
2 | CNCc1ccc(-c2[nH]c3cc(F)cc4c3c2CCNC4=O)cc1 | 0 | 0 | 0 | 0 | 0 | 0 | 0 | 0 | 0 | 0 | 0 | 0 | 0 | 0 | 0 | > 10 | > 10 | > 10 | > 10 | > 10 | > 10 | > 10 | > 10 | > 10 | > 10 | > 10 | > 10 | > 10 | > 10 | > 10
3 | Cc1ccc(F)c(NC(=O)Nc2ccc(-c3cccc4[nH]nc(N)c34)cc2)c1 [Linifanib (ABT-869)] | 0 | 0 | 0 | 0 | 0 | 0 | 0 | 0 | 0 | 0 | 0 | 0 | 0 | 0 | 0 | > 1 | > 1 | > 1 | > 1 | > 1 | > 1 | > 1 | > 1 | > 1 | > 1 | > 1 | > 1 | > 1 | > 1 | > 1
4 | C[C@@H]1C=C2C(=O)O[C@@H]3CC[C@H](C1)[C@]23O [Galiellalactone] | 0 | 0 | 0 | 0 | 2.65 | 2.32 | 0 | 3.53 | 2.52 | 1.56 | 0 | 0 | 6.75 | 0.391 | 2.19 | > 50 | > 50 | > 50 | > 50 | 17.3 | 13.8 | > 50 | 8.36 | 20 | 30.1 | > 50 | > 50 | > 50 | 19.1 | 7
5 | COc1cccc2cc(-c3nc([C@H]4CC[C@H](C(=O)O)CC4)n4ncnc(N)c34)[nH]c12 [OSI-027] | 2.71 | 11 | 11 | 5.02 | 6.48 | 8.2 | 5.03 | 15.8 | 11.9 | 5.99 | 9.81 | 12.5 | 4.23 | 4.31 | 7.62 | 0.713 | 0.263 | 0.132 | 0.333 | 0.697 | 0.131 | 0.338 | 0.134 | 0.246 | 0.543 | 0.219 | 0.198 | 1.16 | 0.203 | 1.42
6 | CC(C)(C#N)c1cc(Cn2cncn2)cc(C(C)(C)C#N)c1 [Anastrozole] | 0 | 0 | 0 | 0 | 0 | 0 | 0 | 0 | 0 | 0 | 0 | 0 | 0 | 0 | 0 | > 10 | > 10 | > 10 | > 10 | > 10 | > 10 | > 10 | > 10 | > 10 | > 10 | > 10 | > 10 | > 10 | > 10 | > 10
7 | Cc1cccc(-c2nn3c(c2-c2ccnc4ccc(C(N)=O)cc24)CCC3)n1 | 0 | 0 | 0 | 0 | 0 | 0 | 0 | 0 | 0 | 0 | 0 | 0 | 0 | 0.246 | 0 | > 1 | > 1 | > 1 | > 1 | > 1 | > 1 | > 1 | > 1 | > 1 | > 1 | > 1 | > 1 |  | > 1 | > 1
8 | N.N.[Cl][Pt][Cl] [Cisplatin] | 0 | 0 | 0 | 0 | 0 | 0 | 0 | 0 | 0 | 0 | 0 | 0 | 0 | 0 | 0 | > 10 | > 10 | > 10 | > 10 | > 10 | > 10 | > 10 | > 10 | > 10 | > 10 | > 10 | > 10 | > 10 | > 10 | > 10
9 | O=C(O)C1(C(=O)O)CCC1.[NH2-].[NH2-].[Pt+2] [Carboplatin] | 0 | 0 | 0 | 0 | 0 | 0 | 0 | 0 | 0 | 0 | 0 | 0 | 0 | 0 | 0 | > 10 | > 10 | > 10 | > 10 | > 10 | > 10 | > 10 | > 10 | > 10 | > 10 | > 10 | > 10 | > 10 | > 10 | > 10
10 | Nc1cccc2c1CN(C1CCC(=O)NC1=O)C2=O (configuration not stated) [Lenalidomide] | 0 | 0 | 0 | 0 | 0 | 0 | 0 | 0 | 0 | 0 | 0 | 0 | 0 | 1.39 | 0 | > 10 | > 10 | > 10 | > 10 | > 10 | > 10 | > 10 | > 10 | > 10 | > 10 | > 10 | > 10 |  | > 10 | > 10
11 | COc1ccc(-c2cc3c(C)nc(N)nc3n([C@H]3CC[C@H](OCCO)CC3)c2=O)cn1 | 13.2 | 19 | 17 | 16.5 | 24.3 | 14.9 | 19.5 | 18.1 | 18.6 | 15.4 | 16.3 | 24 | 20.2 | 16.4 | 22.7 | 0.194 | 0.102 | 0.102 | 0.297 | 0.0766 | 0.305 | 0.175 | 0.188 | 0.184 | 0.332 | 0.208 | 0.0525 | 0.173 | 0.121 | 0.0775
12 | Nc1nc(=O)c2c([nH]1)NCC(CNc1ccc(C(=O)N[C@@H](CCC(=O)O)C(=O)O)cc1)N2C=O (mixture of isomers) [Folinic acid] | 0 | 0.942 | 0 | 0 | 0 | 0 | 0 | 0 | 0 | 0 | 0 | 0 | 0 | 0 | 0 | > 990 | > 990 | > 990 | > 990 | > 990 | > 990 | > 990 | > 990 | > 990 | > 990 | > 990 | > 990 | > 990 | > 990 | > 990
13 | NC(=O)NO [Hydroxyurea] | 0 | 0 | 0 | 0 | 0.154 | 0 | 0 | 0 | 0 | 0 | 0 | 0 | 0 | 0 | 0 | > 100 | > 100 | > 100 | > 100 |  | > 100 | > 100 | > 100 | > 100 | > 100 | > 100 | > 100 |  | > 100 | > 100
14 | CN(C)c1nc(N(C)C)nc(N(C)C)n1 [Altretamine] | 0 | 0 | 0 | 0 | 0 | 0 | 0 | 2.61 | 0 | 0.283 | 0 | 0 | 0 | 0.0496 | 0 | > 10 | > 10 | > 10 | > 10 | > 10 | > 10 | > 10 | 3.37 | > 10 |  | > 10 | > 10 |  | > 10 | > 10
15 | COC(=O)C[C@](O)(CCCC(C)(C)O)C(=O)O[C@@H]1C(OC)=C[C@]23CCCN2CCc2cc4c(cc2[C@H]13)OCO4 [Omacetaxine (Homoharringtonine)] | 16.2 | 19 | 15.2 | 6.72 | 6.25 | 10.7 | 6.34 | 16.4 | 17.4 | 11 | 13.8 | 17.8 | 25.1 | 26.1 | 4.82 | 0.0822 | 0.0372 | 0.0465 |  | 1.89 | 0.419 | 1.78 | 0.0937 | 0.138 | 0.172 | 0.0844 | 0.0922 | 0.0167 | 2.99 | 0.029
